From patent US20050208511A1, “DMBT1 as a clinical marker and uses thereof” (priority 2003, published 2005)

What was measured:
[1] = test system: endometrium; assay: average endometrial thickness in treated monkeys; format: in vivo, cynomolgus monkeys (Macaca fascicularis); conditions: Ovx/E2 + PRM 10 mg/kg daily oral, 19 days
Text: (§1) Adult female cynomolgus monkeys (Macaca fascicularis) were obtained from Covance Research Products. Following one complete menstrual cycle and in the follicular phase of the subsequent menstrual cycle, the animals were ovariectomized by a mid-ventral laparotomy. Ovariectomized (OVX) animals were subject to estrogen treatment after the fourth week following ovariectomy.
Animals and treatment were the same as Example 1 with the following exceptions. To study the effect of PRMs on the endometrium and gene expression, groups of three ovariectomized (OVX) monkeys were given an estrogen implant (E2), plus daily oral doses of the following PRMs for 19 days: mifepristone at 10 mg/kg/d; 17N11-DE (17β-N-substituted-11β-dimethylaminophenyl-estra-4,9-dien-3-one) 1.0, 3.0, or 10 mg/kg/d; 17N11-PE (17β-N-substituted-11β-piperidinylphenyl-estra-4,9-dien-3-one) at 1.0, 3.0, or 10 mg/kg/d. A placebo (0.5% methylcellulose) was administered as a control. 17N11-DE and 17N11-PE are two PRMs that have been described in PCT Publication No. WO 99/62928. Tissue samples were taken from endometria and myometria for histological analysis.

[2] = test system: DMBT1; assay: quantitative RT-PCR of DMBT1 in uterus of ovariectomized rats; format: in vivo, Wistar rats; conditions: OVX rats, ethinyl estradiol + medroxyprogesterone acetate + 10 mg/kg mifepristone (FIG. 3B)
Experimental: Six weeks old ovariectomized Wistar rats (Charles River, Wilmington, Mass.) were dosed for either one day or six weeks with vehicle or test compounds. All treatments were delivered orally, once daily, in 0.5% methylcellulose or sesame oil. After treatment, the uteri were removed, total RNA was purified from the tissues using TRIzol reagent (Invitrogen, Carlsbad, Calif.) as directed by the manufacturer.
Quantitative reverse transcription-polymerase chain reactions (RT-PCR) of DMBT1 from rat RNA samples were carried out using a One-Step RT-PCR Master Mix Kit (Applied Biosystems, Foster City, Calif.) and an ABI Prism 7000 Sequence Detection System (Applied Biosystems), as described by the manufacturer. Commercially available primers and FAM-labeled MGB probes for human and rat DMBT1 (catalog numbers Hs00244827_ml and Rn00575705_ml, respectively) were obtained from Applied Biosystems (Foster City, Calif.). Messenger RNA levels were normalized against 18S ribosomal RNA levels determined using primers and a VIC- and TAMRA-labeled probe from the same vendor.

[3] = test system: DMBT1; assay: DNA microarray analysis of DMBT1 expression in endometrium of ovariectomized monkeys; format: in vivo, cynomolgus monkeys (Macaca fascicularis); conditions: for effect on estrogen-induced increase in DMBT1 mRNA levels: OVX monkeys with estrogen implant plus mifepristone 10 mg/kg/d, microarray analysis and PCR
Text: as §1
Following this period, the OVX monkeys were euthanized and tissue biopsies were taken from endometria of the monkeys treated with estrogen and the placebo. (Details of the endometrial features in OVX monkeys and OVX+estrogen-treated monkeys is described in Example 4.) The biopsies were placed in sterile containers, snap frozen immediately in liquid nitrogen, and stored at −80° C. until processed. Total RNA was prepared from each endometrial tissue biopsy, as described below.
Total RNA was prepared from endometrial tissue biopsies (approximately 50 mg each) using RNAzol™ (Tel-Test, Friendswood, Tex.), as follows. Two milliliters of RNAzol™ were used per 100 mg of tissue. Tissues were homogenized for 2 to 3 minutes using a Tissue Tearor homogenizer (Model No. 985-370; BioSpec Products, Bartlesville, Okla.), then transferred to a glass mortar bowl. The tissues were ground with at least 10 strokes of the pestle until a clear suspension was obtained. The homogenates were transferred to a polypropylene conical flask, to which 0.1 mL of chloroform per 1 mL of homogenate was added. The mixtures were then shaken vigorously for 1 minute. The suspensions were then transferred to a 2 mL microcentrifuge tube and centrifuged for 15. minutes at 12000 g and at 4° C. in a fixed angle rotor using a Biofuge 17R centrifuge (Baxter, Deerfield, Ill.). The aqueous phase was carefully transferred to a new microcentrifuge tube. An equal volume of isopropanol was added to the aqueous phase, mixed gently, and incubated at 4° C. for 15 minutes. RNA was pelleted by centrifuging the mixture for 15 minutes at 12000 g and at 4° C. as described above. The supernatant was removed and the pellet washed with 75% (v/v) ethanol (Pharmco Products, Brookfield, Conn.), followed by centrifugation at 7500 g for 8 minutes at 4° C. The supernatant was removed, and then the RNA pellet was air-dried briefly and resuspended in RNase-free water (Promega, Madison, Wis.). The samples were then treated with Amplification Grade RNase-free DNase I to remove any residual DNA (Invitrogen, Carlsbad, Calif.). Specifically, twenty micrograms of RNA were treated in a reaction volume of 0.1 mL, containing 1× DNase I reaction buffer and 10 units of DNase I. The reaction continued at room temperature for 15 minutes. […]

[4] = test system: DMBT1; assay: immunohistochemical analysis of DMBT1 expression in rat uterus; format: in vivo, Wistar rats; conditions: OVX rats dosed six weeks; compared with estrogen (ethinyl estradiol)
Experimental: Tissues were trimmed and processed for paraffin embedding according to conventional methods. Five-micron sections were cut, mounted onto SuperFrost Plus+(Fisher Scientific, Pittsburgh, Pa.) microscopic slides and dried overnight. […] Briefly, tissue sections on microscopic slides were dewaxed and re-hydrated. Slides were microwaved for 5 min in Target buffer (Dako, Carpenturia, Calif.), cooled, placed in phosphate-buffered saline (PBS, pH 7.4) and treated with 3% (v/v) H2O2 for 10 min at room temperature. All incubations (30 min each) and washes were performed at room temperature. Normal rabbit blocking serum (Vector Labs, Burlingame, Calif.) was placed on all slides for 10 min. After a brief rinse in PBS, sections were treated with goat polyclonal DMBT1 primary antibody (1:25, Hypromatrix, Worcester, Mass.). Slides were then washed in PBS and treated with rabbit anti-goat biotinylated secondary antibodies (Vector Labs). […]
The rabbit polyclonal PCNA (proliferating cell nuclear antigen) antibody (1:4000; Sigma, St. Louis, Mo.) was detected using the HRP:SG detection system as described for routine single IHC, except the use of the SG chromogen (Vector Labs). […] DMBT1 was then detected using the Fast Red chromogen (Sigma, St. Louis, Mo.). […]

[5] = test system: uterus; assay: uterine weight in 22-day-old female rats; format: in vivo, Sprague Dawley rats; conditions: oral; for uterine weight on co-treatment with estrone: 70 μg/kg/day estrone + 1 mg/kg/day compound, three days (FIG. 1); for uterine weight: compound alone, three days, estrone 70 μg/kg/day, others 1 mg/kg/day, vs control (FIG. 1)
Experimental: (§2) Ten groups of 22-day-old female Sprague Dawley rats (three animals per group) were used to evaluate the effects of estrone, tamoxifen, raloxifene, and ICI 182780 on DMBT1 expression in the uterus. The following groups of rats were treated for three days as follows:
(§3) All treatments were delivered orally in 0.5% Methocel. After treatment the animals were euthanized and the uteri were collected, weighed, frozen in liquid nitrogen, and stored at −20° C. RNA was purified from the frozen uteri using 1.0 mL of TRIzol Reagent (Invitrogen) and a PowerGen 25 tissue homogenizer (Fisher Scientific), according to the manufacturer's instructions.
In rats, uteri increase in size under the proliferative influence of estrogen, and this increase in size can be measured by weighing the tissues.
Administration of the treatments and collection of tissue samples were carried out according to the procedure described in Example 2. RNA was purified, blotted and hybridized to radioactively labeled rat ebnerin cDNA as in described in Example 2.

[6] = test system: luminal epithelium; assay: luminal epithelium thickening in rat uterus sections; format: in vivo, Wistar rats; conditions: OVX rats dosed six weeks, compared to sham and ovariectomized control; estrogen = ethinyl estradiol
Experimental: Mature, six week-old ovariectomized or sham-operated Wistar rats (Charles River) were dosed with ethinyl estradiol, tamoxifen or raloxifene for six weeks. Uteri were removed, sectioned for immunohistochemical analysis for DMBT1 expression using a polyclonal goat antibody against the human protein.
Tissues were trimmed and processed for paraffin embedding according to conventional methods. Five-micron sections were cut, mounted onto SuperFrost Plus+(Fisher Scientific, Pittsburgh, Pa.) microscopic slides and dried overnight. The protocols for routine single immunohistochemistry (IHC) have been described previously (D'Andrea et al., 2001, Biotechnic Histochem. 76:97-106). Briefly, tissue sections on microscopic slides were dewaxed and re-hydrated. Slides were microwaved for 5 min in Target buffer (Dako, Carpenturia, Calif.), cooled, placed in phosphate-buffered saline (PBS, pH 7.4) and treated with 3% (v/v) H2O2 for 10 min at room temperature. All incubations (30 min each) and washes were performed at room temperature. Normal rabbit blocking serum (Vector Labs, Burlingame, Calif.) was placed on all slides for 10 min. After a brief rinse in PBS, sections were treated with goat polyclonal DMBT1 primary antibody (1:25, Hypromatrix, Worcester, Mass.). Slides were then washed in PBS and treated with rabbit anti-goat biotinylated secondary antibodies (Vector Labs). After washing in PBS, the avidin-biotin-horseradish peroxidase complex reagent (HRP, Vector Labs) was added. All slides were washed and treated with 3,3′-diaminobenzidine (DAB, Biomeda, Foster City, Calif.) two times for 5 min each, rinsed in distilled water, and counterstained with hematoxylin.

[7] = test system: DMBT1; assay: Northern analysis of DMBT1 expression in rat uterus; format: in vivo, Sprague Dawley rats; conditions: 70 μg/kg/day estrone + 1 mg/kg/day compound, relative to estrone alone (FIG. 3A)
Experimental: as §2, §3
Northern analysis was performed to determine gene expression, including DMBT1 expression, in the uterus of control and treated rats. For gel electrophoresis, samples containing 2 μg of total RNA in a volume of 2 μL of water were added to 6 microliters of formaldehyde loading dye (Ambion) and incubated at 65° C. for 20 minutes. One microliter of a 0.1 mg/ml ethidium bromide solution was then added to each sample. […] The RNA was transferred to a Hybond-N membrane (Amersham) for […] by capillary transfer blotting, using 10×SSC (0.15 M Sodium citrate, pH 7.0, 1.5 M NaCl), after which the membranes were stained with ethidium bromide, destained with water, and photographed for lane loading comparison. The membranes were then air-dried and kept at room temperature until hybridization.
A glycerol stock of a bacterial clone carrying a plasmid (pINCY) containing the rat ebnerin (DMBT1) gene was obtained from Incyte Genomics (ID#: 0000101155000011). […] One colony was selected and used to inoculate 200 mL of Lennox L Broth (Sigma)+50 μg/mL ampicillin (Sigma). The liquid culture was grown overnight at 37° C. and the bacteria were collected by centrifugation. Purification of plasmid DNA was carried out using a QIAfilter plasmid maxi kit (QIAgen) according to the manufacturer's instructions.
Purified pINCY/DMBT1 was treated with the restriction enzymes EcoRI and NotI (Promega) for the preparation and isolation of a 1,174 bp DNA fragment containing the ebnerin probe (DMBT1). The products of the restriction enzyme reaction were separated by electrophoresis on a 1× TAE, 1% SeaKem Gold Agarose Reliant gel, and the band corresponding to the 1.174 kb DNA ebnerin clone was excised. The ebnerin DNA probe was purified from the gel slice using a QIAquick Gel Extraction Kit (QIAgen) according to the manufacturer's instructions. Bound DNA was eluted from the QIAgen column with 50 μL of elution buffer. The ebnerin DNA probe in the eluate was quantified by comparison to a DNA standard by gel electrophoresis. The ebnerin DNA probe was then diluted to a final concentration of 25 ng/μL.
Random-primed probe was made from 25 ng of the purified ebnerin DNA using a DECAprime II kit (Ambion) and Redivue α-^32P dATP (10 mCi/mL) (Amersham) according to the manufacturer's instructions, with the exception that the reaction was incubated for 30 minutes at 37° C. After adding EDTA to stop the reaction, the labeled probe was purified using a QIAquick Nucleotide Removal Kit (QIAgen) according to the manufacturer's instructions, with the final volume of eluted probe being 50 μL. Two microliters were counted in a scintillation counter to ensure optimal radionuclide incorporation (>2×10^6 cpm/μL).
The blot membrane as described in section A was wet in 2×SSC buffer (Sigma) for 15 minutes, then pre-hybridized in 10 mL RapidHyb (Amersham) at 65° C. for 20 minutes. The probe was boiled for 10 minutes, and 25 μL was added to 10 mL of RapidHyb, pre-warmed to 65° C. The blot membrane was added to the diluted probe solution and incubated, with rotation, in a hybridization oven for approximately 10 hours.
The membrane was removed from the probe-containing solution and rinsed twice with 2×SSPE +0.5% SDS+0.5% pyrophosphate at room temperature, and then washed once, with gentle agitation, for 30 minutes at room temperature in the same solution.

Row | SMILES | Endometrial Thickness (mm) [1] | Endometrial Thickness (mm) ([1]; listed as Mif) | effect on progestin blockade of DMBT1 mRNA increase [2] | effect on estrogen-induced increase in DMBT1 mRNA levels [3] | effect on estrogen-induced increase in DMBT1 mRNA levels ([3]; listed as Mifepristone) | repression of estrogen-induced DMBT1 mRNA levels ([3]; Ovx/E2 + 10 mg/kg, microarray (FIG. 7)) | cell levels of DMBT1 (immunostaining) in luminal epithelium [4] | uterine weight on co-treatment with estrone [5] | uterine weight [5] | thickening of the luminal epithelium [6] | DMBT1 expression on coadministration with estrone [7]
1 | CC#C[C@]1(O)CC[C@H]2[C@@H]3CCC4=CC(=O)CCC4=C3[C@@H](c3ccc(N(C)C)cc3)C[C@@]21C [mifepristone] | shrinks to about the thickness of that seen with leuprolide-treated tissue | 1.17 | blocked in turn | inhibited | prevented the increase in DMBT1 mRNA levels | about 20 fold |  |  |  |  | 
2 | O=C(c1ccc(OCCN2CCCCC2)cc1)c1c(-c2ccc(O)cc2)sc2cc(O)ccc12 [raloxifene] |  |  |  |  |  |  | higher cell levels of DMBT1 than estrogen | lower uterine weights, as compared to estrone | did not significantly affect uterine weight | not with raloxifene treatment | additive increase
3 | CC/C(=C(\c1ccccc1)c1ccc(OCCN(C)C)cc1)c1ccccc1 [tamoxifen] |  |  |  |  |  |  | higher cell levels of DMBT1 than estrogen | lower uterine weights, as compared to estrone | increases uterine weight only moderately | even more pronounced | increased slightly
